Assay results taken from patent publication US9284333B2, “Fused pyrroledicarboxamides and their use as pharmaceuticals” (SANOFI, priority 2012, dated 2016).

biological target: Human TASK-1 channels (Homo sapiens (Human), UniProt O14649); test: Determination of the activity on the TASK-1 channel in Xenopus oocytes (two-microelectrode voltage clamp); format: cell-based; settings: compound concentration 5 μM
Description: Determination of the activity on the TASK-1 channel in Xenopus oocytes
Human TASK-1 channels were expressed in Xenopus oocytes. For this purpose, oocytes were isolated from Xenopus laevis and defoliculated. Subsequently, TASK-1-encoding RNA synthesized in vitro was injected into the oocytes. After two days of TASK-1 protein expression, TASK-1 currents were measured by two-microelectrode voltage clamp. Data were acquired and analyzed using a TEC-10cx amplifier (NPI Electronic, Tamm, Germany) connected to an ITC-16 interface (Instrutech Corp., Long Island, USA) and Pulse software (HEKA Elektronik, Lambrecht, Germany). Oocytes were clamped to −90 mV and TASK-1 mediated currents were measured during 500 ms voltage pulses to 40 mV. Oocytes were continuously superfused with ND96 buffer containing 96 mM sodium chloride, 2 mM potassium chloride, 1.8 mM calcium chloride, 1 mM magnesium chloride, 5 mM 4-(2-hydroxyethyl)-piperazine-1-ethanesulfonic acid (HEPES; pH adjusted to 7.4 with sodium hydroxide). All experiments were performed at room temperature. Test compounds were consecutively added to the bath solution at rising concentrations. Compound effects were calculated as the percentage inhibition of TASK-1 control current before compound addition. IC50 values were obtained by fitting the data to the general dose-response equation.

Human TASK-1 channels, sequence (O14649 whole entry): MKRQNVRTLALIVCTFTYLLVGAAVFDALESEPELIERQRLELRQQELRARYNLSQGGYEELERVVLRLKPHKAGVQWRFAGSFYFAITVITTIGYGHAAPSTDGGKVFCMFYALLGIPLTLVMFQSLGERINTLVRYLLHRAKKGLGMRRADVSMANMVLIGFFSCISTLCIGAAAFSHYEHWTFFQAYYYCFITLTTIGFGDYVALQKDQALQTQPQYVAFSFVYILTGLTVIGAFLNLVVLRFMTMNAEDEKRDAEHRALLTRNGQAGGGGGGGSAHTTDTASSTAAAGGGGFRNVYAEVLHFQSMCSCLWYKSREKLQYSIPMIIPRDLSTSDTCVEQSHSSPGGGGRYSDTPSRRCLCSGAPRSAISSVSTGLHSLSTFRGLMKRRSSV

Question: For `C[C@@H](NC(=O)c1cc(C(=O)NCC2CC2)c2n1CCOC2)c1ccc(F)cc1` [16ds, 3,4-Dihydro-1H-pyrrolo[2,1-c][1,4]oxazine-6,8-dicarboxylic acid 8-cyclopropylmethyl-amide 6-{[(R)-1-(4-fluoro-phenyl)-ethyl]-amide}], which inhibition at 5 µM is on record?
Answer: The inhibition at 5 µM was 89%.

Question: Which inhibition at 5 µM does the source give for `CC(C)[C@@H](NC(=O)c1cc(C(=O)N2CCC[C@@H]2C)c2n1CCOC2)c1ccc(C(F)(F)F)nc1` [16po, 8-((S)-2-Methyl-pyrrolidine-1-carbonyl)-3,4-dihydro-1H-pyrrolo[2,1-c][1,4]oxazine-6-carboxylic acid [(R)-2-methyl-1-(6-trifluoromethyl-pyridin-3-yl)-propyl]-amide] here?
Answer: The inhibition at 5 µM was 71%.

Question: For `CC[C@@H](NC(=O)c1cc(C(=O)N2CCC[C@@H]2C)n2c1COCC2)c1ncccn1` [16bd, 6-((S)-2-Methyl-pyrrolidine-1-carbonyl)-3,4-dihydro-1H-pyrrolo[2,1-c][1,4]oxazine-8-carboxylic acid ((R)-1-pyrimidin-2-yl-propyl)-amide], which inhibition at 5 µM is on record?
Answer: Its inhibition at 5 µM is 47%.

same assay, conditions: human TASK-1 expressed in Xenopus oocytes, room temperature; read-out: IC50 value for TASK-1 inhibition

Question: Which IC50 does the source give for `CC[C@@H](NC(=O)c1cc(C(=O)N2CCC[C@@H]2C)n2c1SCC2)c1ccccc1` [16ks, 5-((S)-2-Methyl-pyrrolidine-1-carbonyl)-2,3-dihydro-pyrrolo[2,1-b]thiazole-7-carboxylic acid ((R)-1-phenyl-propyl)-amide] here?
Answer: Its IC50 is 37 nM.

Question: How did the IC50 turn out when `CC[C@H](NC(=O)c1cc(C(=O)N[C@H](C)c2ccc(F)cc2)c2n1CCOC2)c1ncccn1` [16nw, 3,4-Dihydro-1H-pyrrolo[2,1-c][1,4]oxazine-6,8-dicarboxylic acid 8-{[(R)-1-(4-fluoro-phenyl)-ethyl]-amide} 6-[((S)-1-pyrimidin-2-yl-propyl)-amide]] was run?
Answer: The IC50 was 200 nM.

Question: For `O=C(NC(CC(F)(F)F)c1ccccc1)c1cc(C(=O)N2CCCC2)n2c1COCC2` (stereo not drawn) [16dj, 6-(Pyrrolidine-1-carbonyl)-3,4-dihydro-1H-pyrrolo[2,1-c][1,4]oxazine-8-carboxylic acid (3,3,3-trifluoro-1-phenyl-propyl)-amide], which IC50 is on record?
Answer: The IC50 was 1900 nM.

Question: For `CC[C@@H](NC(=O)c1cc(C(=O)NCc2cnccn2)n2c1COCC2)c1ccccc1` [16gt, 3,4-Dihydro-1H-pyrrolo[2,1-c][1,4]oxazine-6,8-dicarboxylic acid 8-[((R)-1-phenyl-propyl)-amide] 6-[(pyrazin-2-ylmethyl)-amide]], which IC50 is on record?
Answer: Its IC50 is 310 nM.

Question: Which IC50 does the source give for `CC[C@@H](NC(=O)c1cc(C(=O)N2CC[C@H](OC)C2)n2c1COCC2)c1ccccc1` [16ek, 6-((S)-3-Methoxy-pyrrolidine-1-carbonyl)-3,4-dihydro-1H-pyrrolo[2,1-c][1,4]oxazine-8-carboxylic acid ((R)-1-phenyl-propyl)-amide] here?
Answer: The IC50 was 560 nM.

Question: With `CC[C@@H](NC(=O)c1cc(C(=O)N[C@H](CC)c2cccnc2OC)n2c1COCC2)c1ccccc1` [16ig, 3,4-Dihydro-1H-pyrrolo[2,1-c][1,4]oxazine-6,8-dicarboxylic acid 6-{[(R)-1-(2-methoxy-pyridin-3-yl)-propyl]-amide} 8-[((R)-1-phenyl-propyl)-amide]] as the compound, how does the IC50 read?
Answer: Its IC50 is 240 nM.

Question: Which IC50 does the source give for `CC[C@@H](NC(=O)c1cc(C(=O)N2CCC[C@@H]2C)n2c1COCC2)c1ccc(F)c(C(F)(F)F)c1` [16bo, 6-((S)-2-Methyl-pyrrolidine-1-carbonyl)-3,4-dihydro-1H-pyrrolo[2,1-c][1,4]oxazine-8-carboxylic acid [(R)-1-(4-fluoro-3-trifluoromethyl-phenyl)-propyl]-amide] here?
Answer: The IC50 was 160 nM.

Question: With `CC[C@H](NC(=O)c1cc(C(=O)N[C@H](CC)c2ccccc2)c2n1CCOC2)c1cnccn1` [16hx, 3,4-Dihydro-1H-pyrrolo[2,1-c][1,4]oxazine-6,8-dicarboxylic acid 8-[((R)-1-phenyl-propyl)-amide] 6-[((S)-1-pyrazin-2-yl-propyl)-amide]] as the compound, how does the IC50 read?
Answer: The IC50 was 57 nM.

Question: How did the IC50 turn out when `CC[C@@H](NC(=O)c1cc(C(=O)N2CCC[C@@H]2c2ccc(OC)nc2)n2c1COCC2)c1ccccc1` [16fl, 6-[(R)-2-(6-Methoxy-pyridin-3-yl)-pyrrolidine-1-carbonyl]-3,4-dihydro-1H-pyrrolo[2,1-c][1,4]oxazine-8-carboxylic acid ((R)-1-phenyl-propyl)-amide] was run?
Answer: Its IC50 is 240 nM.

Question: Which IC50 does the source give for `CC[C@@H](NC(=O)c1cc(C(=O)N2CCC[C@@H]2COC(C)=O)n2c1COCC2)c1ccccc1` [16rg, acetic acid (R)-1-[8-((R)-1-phenyl-propylcarbamoyl)-3,4-dihydro-1H-pyrrolo[2,1-c][1,4]oxazine-6-carbonyl]-pyrrolidin-2-ylmethyl ester] here?
Answer: The IC50 was 110 nM.

Question: Which IC50 does the source give for `CC[C@@H](NC(=O)c1cc(C(=O)N2CCC[C@@H]2C)n2c1COCC2)c1ccc(C(F)(F)F)cc1C(F)(F)F` [16cp, 6-((S)-2-Methyl-pyrrolidine-1-carbonyl)-3,4-dihydro-1H-pyrrolo[2,1-c][1,4]oxazine-8-carboxylic acid [(R)-1-(2,4-bis-trifluoromethyl-phenyl)-propyl]-amide] here?
Answer: Its IC50 is 970 nM.

Question: With `CC[C@@H](NC(=O)c1cc(C(=O)N2CCC[C@@H]2C)n2c1COCC2)c1ccc(C#N)s1` [16rd, 6-((S)-2-Methyl-pyrrolidine-1-carbonyl)-3,4-dihydro-1H-pyrrolo[2,1-c][1,4]oxazine-8-carboxylic acid [(R)-1-(5-cyano-thiophen-2-yl)-propyl]-amide] as the compound, how does the IC50 read?
Answer: Its IC50 is 450 nM.

Question: `CC[C@@H](NC(=O)c1cc(C(=O)N[C@H](C)c2ccc(F)cc2)n2c1CSCC2)c1ccccc1` [16la, 3,4-Dihydro-1H-pyrrolo[2,1-c][1,4]thiazine-6,8-dicarboxylic acid 6-{[(R)-1-(4-fluoro-phenyl)-ethyl]-amide} 8-[((R)-1-phenyl-propyl)-amide]] was tested. Which IC50 did it give?
Answer: The IC50 was 150 nM.

Question: Which IC50 does the source give for `CC[C@H](NC(=O)c1cc(C(=O)N[C@H](CC)c2ccccc2)n2c1COCC2)c1ncccn1` [16ke, 3,4-Dihydro-1H-pyrrolo[2,1-c][1,4]oxazine-6,8-dicarboxylic acid 6-[((R)-1-phenyl-propyl)-amide] 8-[((S)-1-pyrimidin-2-yl-propyl)-amide]] here?
Answer: Its IC50 is 220 nM.

Question: With `CC[C@@H](NC(=O)c1cc(C(=O)N[C@H]2CCc3ccccc32)n2c1COCC2)c1ccccc1` [16gj, 3,4-Dihydro-1H-pyrrolo[2,1-c][1,4]oxazine-6,8-dicarboxylic acid 6-(S)-indan-1-ylamide 8-[((R)-1-phenyl-propyl)-amide]] as the compound, how does the IC50 read?
Answer: Its IC50 is 48 nM.

Question: Which IC50 does the source give for `CC[C@@H](NC(=O)c1cc(C(=O)N[C@@H](c2ccccc2)C2CC2)n2c1CCCC2)c1ccccc1` [16mv, 5,6,7,8-Tetrahydro-indolizine-1,3-dicarboxylic acid 3-[((R)-cyclopropyl-phenyl-methyl)-amide] 1-[((R)-1-phenyl-propyl)-amide]] here?
Answer: Its IC50 is 48 nM.

Question: `CC[C@@H](NC(=O)c1cc(C(=O)N(C)Cc2ccccn2)n2c1COCC2)c1ccccc1` [16gw, 3,4-Dihydro-1H-pyrrolo[2,1-c][1,4]oxazine-6,8--dicarboxylic acid 6-(methyl-pyridin-2-ylmethyl-amide) 8-[((R)-1-phenyl-propyl)-amide]] was tested. Which IC50 did it give?
Answer: The IC50 was 780 nM.

Question: For `CC[C@@H](NC(=O)c1cc(C(=O)N2CCCC2)n2c1COCC2)c1ccccc1C(F)(F)F` [16da, 6-(Pyrrolidine-1-carbonyl)-3,4-dihydro-1H-pyrrolo[2,1-c][1,4]oxazine-8-carboxylic acid [(R)-1-(2-trifluoromethyl-phenyl)-propyl]-amide], which IC50 is on record?
Answer: Its IC50 is 440 nM.

Question: How did the IC50 turn out when `CC[C@@H](NC(=O)c1cc(C(=O)N2CCC[C@@H]2C)n2c1CCCC2)c1ccc(C#N)nc1` [16lv, 3-((S)-2-Methyl-pyrrolidine-1-carbonyl)-5,6,7,8-tetrahydro-indolizine-1-carboxylic acid [(R)-1-(6-cyano-pyridin-3-yl)-propyl]-amide] was run?
Answer: The IC50 was 2100 nM.

Question: For `CC[C@@H](NC(=O)c1cc(C(=O)NCc2cncc(F)c2)n2c1COCC2)c1ccccc1` [16gu, 3,4-Dihydro-1H-pyrrolo[2,1-c][1,4]oxazine-6,8-dicarboxylic acid 6-[(5-fluoro-pyridin-3-ylmethyl)-amide] 8-[((R)-1-phenyl-propyl)-amide]], which IC50 is on record?
Answer: The IC50 was 640 nM.

Question: How did the IC50 turn out when `CC[C@@H](NC(=O)c1cc(C(=O)N2CCC[C@@H]2C(C)C)c2n1CCOC2)c1ccccc1` [16kl, 8-((R)-2-Isopropyl-pyrrolidine-1-carbonyl)-3,4-dihydro-1H-pyrrolo[2,1-c][1,4]oxazine-6-carboxylic acid ((R)-1-phenyl-propyl)-amide] was run?
Answer: The IC50 was 210 nM.

Question: For `CC[C@@H](NC(=O)c1cc(C(=O)N(CC)Cc2nnn(C)n2)n2c1COCC2)c1ccccc1` [16rp, 3,4-Dihydro-1H-pyrrolo[2,1-c][1,4]oxazine-6,8-dicarboxylic acid 6-[ethyl-(2-methyl-2H-tetrazol-5-ylmethyl)-amide] 8-[((R)-1-phenyl-propyl)-amide]], which IC50 is on record?
Answer: Its IC50 is 450 nM.

Question: `CC[C@H](NC(=O)c1cc(C(=O)N[C@@H](c2ccc(F)cc2)C(C)C)c2n1CCOC2)c1ccccc1` [16jq, 3,4-Dihydro-1H-pyrrolo[2,1-c][1,4]oxazine-6,8-dicarboxylic acid 8-{[(R)-1-(4-fluoro-phenyl)-2-methyl-propyl]-amide} 6-[((S)-1-phenyl-propyl)-amide]] was tested. Which IC50 did it give?
Answer: Its IC50 is 67 nM.

Question: For `CC[C@@H](NC(=O)c1cc(C(=O)Nc2c(C)noc2C)c2n1CCOC2)c1ccccc1` [16jk, 3,4-Dihydro-1H-pyrrolo[2,1-c][1,4]oxazine-6,8-dicarboxylic acid 8-[(3,5-dimethyl-isoxazol-4-yl)-amide] 6-[((R)-1-phenyl-propyl)-amide]], which IC50 is on record?
Answer: Its IC50 is 620 nM.
